Test results reported in paper PMC10535318, “Benzimidazole-Based Schiff Base Hybrid Scaffolds: A Promising Approach to Develop Multi-Target Drugs for Alzheimer’s Disease” (Pharmaceuticals, 2023).
Like-named read-outs stand apart in the source and are kept apart here.

Tests used:
[1] = target: T1, acetylcholinesterase (AChE) (Homo sapiens, UniProt P22303); test: biochemical
T1 construct: purchased Sigma-Aldrich (Steinheim, Germany)
Description: (§1) All chemicals and reagents employed in the study were obtained from Merck or Sigma-Aldrich (St. Louis, MO, USA) (Darmstadt, Germany). Acetylcholinesterase (E.C.3.1.1.7) and butyrylcholinesterase (E.C. 3.1.1.8) were procured from Sigma–Aldrich (Steinheim, Germany). The ^1H NMR and ^13C NMR spectra were recorded using a Bruker FT-NMR spectrometer operating at the digital frequencies of 600 and 150 MHz (Bioscience, Bruker, Billerica, MA, USA). Mass spectra were acquired utilizing a Shimadzu LCMS-IT-TOF system (Kyoto, Japan) employing the electrospray ionization (ESI) technique. The purity of synthesized derivatives was checked through thin-layer chromatography using silica gel 60 F254 (Merck, KGaA, Darmstadt, Germany).
(§2) The study was carried out following the guidelines outlined in our previously published study.

[2] = target: T2, butyrylcholinesterase (BuChE) (Homo sapiens, UniProt P06276); test: biochemical
T2 construct: purchased Sigma-Aldrich (Steinheim, Germany)
Description: as §1, §2

[3] = in vitro, value ± standard error mean, read-out: AChE Inhibition IC50 ± SEM
[4] = in vitro, value ± standard error mean, read-out: BuChE Inhibition IC50 ± SEM

T1 sequence (P22303 32-614, species assumed): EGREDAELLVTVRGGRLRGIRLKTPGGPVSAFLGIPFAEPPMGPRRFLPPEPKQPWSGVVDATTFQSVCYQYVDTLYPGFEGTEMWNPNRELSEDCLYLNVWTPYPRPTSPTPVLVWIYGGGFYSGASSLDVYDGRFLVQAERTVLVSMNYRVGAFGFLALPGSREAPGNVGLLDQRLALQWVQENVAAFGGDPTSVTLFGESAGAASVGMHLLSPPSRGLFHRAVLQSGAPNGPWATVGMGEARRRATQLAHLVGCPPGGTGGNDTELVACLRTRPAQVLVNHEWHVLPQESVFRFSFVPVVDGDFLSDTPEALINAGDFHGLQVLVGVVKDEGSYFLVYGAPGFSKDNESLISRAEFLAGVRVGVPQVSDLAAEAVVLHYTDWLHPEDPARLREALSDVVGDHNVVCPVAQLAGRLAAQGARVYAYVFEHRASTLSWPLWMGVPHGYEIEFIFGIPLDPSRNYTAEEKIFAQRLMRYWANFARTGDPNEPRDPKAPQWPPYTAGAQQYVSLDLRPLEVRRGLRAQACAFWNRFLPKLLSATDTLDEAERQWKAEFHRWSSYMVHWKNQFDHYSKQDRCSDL
T2 sequence (P06276 29-602): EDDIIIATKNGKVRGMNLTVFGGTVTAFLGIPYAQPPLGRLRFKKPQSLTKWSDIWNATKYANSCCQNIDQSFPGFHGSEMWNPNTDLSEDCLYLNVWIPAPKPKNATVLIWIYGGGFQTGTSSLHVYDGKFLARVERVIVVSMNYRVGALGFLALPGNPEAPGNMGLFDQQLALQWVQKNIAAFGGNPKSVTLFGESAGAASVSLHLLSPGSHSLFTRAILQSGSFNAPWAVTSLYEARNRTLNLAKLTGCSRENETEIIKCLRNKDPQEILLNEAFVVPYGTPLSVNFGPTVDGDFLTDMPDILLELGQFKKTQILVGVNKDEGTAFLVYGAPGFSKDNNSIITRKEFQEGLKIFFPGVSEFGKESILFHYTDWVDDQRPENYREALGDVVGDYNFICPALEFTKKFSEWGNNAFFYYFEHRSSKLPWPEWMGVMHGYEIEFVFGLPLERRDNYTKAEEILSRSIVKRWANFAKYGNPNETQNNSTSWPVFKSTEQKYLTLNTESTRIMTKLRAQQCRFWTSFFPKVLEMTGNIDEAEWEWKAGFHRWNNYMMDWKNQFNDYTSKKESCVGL

O=[N+]([O-])c1ccc(NC2=CC=C(/N=C(\CSc3nc4ccccc4[nH]3)c3ccc([N+](=O)[O-])cc3Br)C2)c(O)c1 [Compound 6, (Z)-2-((4-((2-((1H-benzo[d]imidazol-2-yl)thio)-1-(2-bromo-4-nitrophenyl)ethylidene)amino)cyclopenta-1,3-dien-1-yl)amino)-5-nitrophenol] was tested, and the IC50 [1] was 226 ± 10.1 µM and the IC50 [2] was 274 ± 13.8 µM.

With O=[N+]([O-])c1ccc(/C(CSc2nc3ccccc3[nH]2)=N/C2=CC=C(Nc3ccc([N+](=O)[O-])cc3O)C2)cc1 [Compound 1, (Z)-2-((4-((2-((1H-benzo[d]imidazol-2-yl)thio)-1-(4-nitrophenyl)ethylidene)amino)cyclopenta-1,3-dien-1-yl)amino)-5-nitrophenol] the IC50 [1] was 214 ± 11.6 µM and the IC50 [2] was 249 ± 10.9 µM.

With O=[N+]([O-])c1ccc(NC2=CC=C(/N=C(\CSc3nc4ccccc4[nH]3)c3ccc(Cl)c(Cl)c3)C2)c(O)c1 [Compound 5, (Z)-2-((4-((2-((1H-benzo[d]imidazol-2-yl)thio)-1-(3,4-dichlorophenyl)ethylidene)amino)cyclopenta-1,3-dien-1-yl)amino)-5-nitrophenol] the IC50 [1, 3] was 169 ± 7.7 µM and the IC50 [2, 4] was 179 ± 6.7 µM.

Work on Cc1ccc(/C(CSc2nc3ccccc3[nH]2)=N/C2=CC=C(Nc3ccc([N+](=O)[O-])cc3O)C2)cc1 [Compound 4, (Z)-2-((4-((2-((1H-benzo[d]imidazol-2-yl)thio)-1-(p-tolyl)ethylidene)amino)cyclopenta-1,3-dien-1-yl)amino)-5-nitrophenol] yielded an IC50 [1, 3] of 274 ± 7.6 µM and an IC50 [2, 4] of 285 ± 8.2 µM.

Work on O=[N+]([O-])c1cccc(NC2=CC=C(/N=C(\CSc3nc4ccccc4[nH]3)c3ccccc3Br)C2)c1 [Compound 17, (Z)-N-(4-((2-((1H-benzo[d]imidazol-2-yl)thio)-1-(2-bromophenyl)ethylidene)amino)cyclopenta-1,3-dien-1-yl)-3-nitroaniline] yielded an IC50 [1, 3] of 234 ± 10.1 µM and an IC50 [2, 4] of 269 ± 9.6 µM.

In the case of Cc1ccc(/C(CSc2nc3ccccc3[nH]2)=N/C2=CC=C(Nc3cccc([N+](=O)[O-])c3)C2)cc1 [Compound 12, (Z)-N-(4-((2-((1H-benzo[d]imidazol-2-yl)thio)-1-(p-tolyl)ethylidene)amino)cyclopenta-1,3-dien-1-yl)-3-nitroaniline], the IC50 [1, 3] is reported as 308 ± 8.8 µM and the IC50 [2, 4] is reported as 318 ± 9.8 µM.

With Cc1cc([N+](=O)[O-])ccc1/C(CSc1nc2ccccc2[nH]1)=N/C1=CC=C(Nc2ccc([N+](=O)[O-])cc2O)C1 [Compound 2, (Z)-2-((4-((2-((1H-benzo[d]imidazol-2-yl)thio)-1-(2-methyl-4-nitrophenyl)ethylidene)amino)cyclopenta-1,3-dien-1-yl)amino)-5-nitrophenol] the IC50 [1] was 199 ± 10.2 µM and the IC50 [2] was 204 ± 8.2 µM.

Molecule Cc1ccccc1/C(CSc1nc2ccccc2[nH]1)=N/C1=CC=C(Nc2ccc([N+](=O)[O-])cc2O)C1 [Compound 8, (Z)-2-((4-((2-((1H-benzo[d]imidazol-2-yl)thio)-1-(o-tolyl)ethylidene)amino)cyclopenta-1,3-dien-1-yl)amino)-5-nitrophenol] has an IC50 [1, 3] of 291 ± 12.6 µM and an IC50 [2, 4] of 304 ± 13.8 µM.

Cc1cccc(/C(CSc2nc3ccccc3[nH]2)=N/C2=CC=C(Nc3cccc([N+](=O)[O-])c3)C2)c1 [Compound 13, (Z)-N-(4-((2-((1H-benzo[d]imidazol-2-yl)thio)-1-(m-tolyl)ethylidene)amino)cyclopenta-1,3-dien-1-yl)-3-nitroaniline] showed an IC50 [1, 3] of 321 ± 13.5 µM and an IC50 [2, 4] of 354 ± 12.7 µM.

For Cc1cc([N+](=O)[O-])ccc1/C(CSc1nc2ccccc2[nH]1)=N/C1=CC=C(Nc2cccc([N+](=O)[O-])c2)C1 [Compound 15, (Z)-N-(4-((2-((1H-benzo[d]imidazol-2-yl)thio)-1-(2-methyl-4-nitrophenyl)ethylidene)amino)cyclopenta-1,3-dien-1-yl)-3-nitroaniline], the IC50 [1] was 217 ± 8.28 µM and the IC50 [2] was 221 ± 8.7 µM.

For O=[N+]([O-])c1cccc(NC2=CC=C(/N=C(\CSc3nc4ccccc4[nH]3)c3ccc([N+](=O)[O-])cc3Br)C2)c1 [Compound 18, (Z)-N-(4-((2-((1H-benzo[d]imidazol-2-yl)thio)-1-(2-bromo-4-nitrophenyl)ethylidene)amino)cyclopenta-1,3-dien-1-yl)-3-nitroaniline], the IC50 [1] was 214 ± 8.2 µM and the IC50 [2] was 247 ± 9.1 µM.

For Cc1ccccc1/C(CSc1nc2ccccc2[nH]1)=N/C1=CC=C(Nc2cccc([N+](=O)[O-])c2)C1 [Compound 14, (Z)-N-(4-((2-((1H-benzo[d]imidazol-2-yl)thio)-1-(o-tolyl)ethylidene)amino)cyclopenta-1,3-dien-1-yl)-3-nitroaniline], the IC50 [1, 3] was 289 ± 11.5 µM and the IC50 [2, 4] was 311 ± 12.3 µM.

O=[N+]([O-])c1ccc(/C(CSc2nc3ccccc3[nH]2)=N/C2=CC=C(Nc3cccc([N+](=O)[O-])c3)C2)cc1 [Compound 11, (Z)-N-(4-((2-((1H-benzo[d]imidazol-2-yl)thio)-1-(4-nitrophenyl)ethylidene)amino)cyclopenta-1,3-dien-1-yl)-3-nitroaniline] gave an IC50 [1] of 268 ± 11.7 µM and an IC50 [2] of 274 ± 9.1 µM.

Molecule COc1ccc(/C(CSc2nc3ccccc3[nH]2)=N/C2=CC=C(Nc3cccc([N+](=O)[O-])c3)C2)cc1O [Compound 9, (Z)-5-(2-((1H-benzo[d]imidazol-2-yl)thio)-1-((4-((3-nitrophenyl)amino)cyclopenta-1,3-dien-1-yl)imino)ethyl)-2-methoxyphenol] has an IC50 [1, 3] of 174 ± 6.76 µM and an IC50 [2, 4] of 181 ± 8.5 µM.

O=[N+]([O-])c1ccc(NC2=CC=C(/N=C(\CSc3nc4ccccc4[nH]3)c3ccccc3)C2)c(O)c1 [Compound 10, (Z)-2-((4-((2-((1H-benzo[d]imidazol-2-yl)thio)-1-phenylethylidene)amino)cyclopenta-1,3-dien-1-yl)amino)-5-nitrophenol] gave an IC50 [1, 3] of 343 ± 10.6 µM and an IC50 [2, 4] of 376 ± 12.8 µM.

Work on O=[N+]([O-])c1ccc(NC2=CC=C(/N=C(\CSc3nc4ccccc4[nH]3)c3ccccc3Br)C2)c(O)c1 [Compound 7, (Z)-2-((4-((2-((1H-benzo[d]imidazol-2-yl)thio)-1-(2-bromophenyl)ethylidene)amino)cyclopenta-1,3-dien-1-yl)amino)-5-nitrophenol] yielded an IC50 [1, 3] of 314 ± 12.8 µM and an IC50 [2, 4] of 326 ± 13.1 µM.

O=[N+]([O-])c1ccc(NC2=CC=C(/N=C(\CSc3nc4ccccc4[nH]3)c3ccccc3[N+](=O)[O-])C2)c(O)c1 [Compound 3, (Z)-2-((4-((2-((1H-benzo[d]imidazol-2-yl)thio)-1-(2-nitrophenyl)ethylidene)amino)cyclopenta-1,3-dien-1-yl)amino)-5-nitrophenol] was tested, and the IC50 [1] was 124 ± 10.2 µM and the IC50 [2] was 131 ± 9.7 µM.
